We go through six molecules from patent US20110039896A1, “NOVEL 2-PYRROLIDINYL-3-AMIDO-6-AMINO-PYRIDINE DERIVATIVES USEFUL AS POTASSIUM CHANNEL ACTIVATORS” (NeuroSearch A/S, priority 2007, published 2011).

For the assay, the target named is T1, human Kv72+3 channels (Homo sapiens, UniProt O43525+O43526).
T1 construct: expressed in transfected cells
The assay is described as follows: Patch-clamp on HEK293 cells stably expressing human Kv7.2+3 channels. Format: cell-based. Particulars: conc. 0.03 μM, −30 mV, 20 ms, current relative to baseline current defined as 100%, read-out: IK (%). From the text: The effect obtained by these channel activators is described as a percentage increase in baseline current at a given concentration. The baseline current is defined as 100%, and an increase in current is expressed relative to this, i.e. an increase from 1 nA to 1.2 nA is reported as 120%.
Turning to `O=C(Cc1ccc(C(F)(F)F)c(F)c1)Nc1ccc(NCc2ccc(F)cc2)nc1N1CCCC1` [Compound 1, N-[6-(4-Fluoro-benzylamino)-2-pyrrolidin-1-yl-pyridin-3-yl]-2-(3-fluoro-4-trifluoromethyl-phenyl)-acetamide], the activity at 0.03 µM is 306%. With `O=C(Nc1ccc(NCc2ccc(F)cc2)nc1N1CCCC1)[C@@H]1C[C@H]1c1ccccc1` [Compound 7, (R)-2-Phenyl-cyclopropanecarboxylic acid [6-(4-fluoro-benzylamino)-2-pyrrolidin-1-yl-pyridin-3-yl]-amide] the figure was 192%; with `CC(C)(C)CC(=O)Nc1ccc(NCc2ccc(F)cc2)nc1N1CCCC1` [Compound 9, N-[6-(4-Fluoro-benzylamino)-2-pyrrolidin-1-yl-pyridin-3-yl]-3,3-dimethyl-butyramide], 239%. On to `CC(C)(C)CC(=O)Nc1ccc(NCc2ccc3c(c2)OCO3)nc1N1CCCC1` [Compound 14, N-{6-[(Benzo[1,3]dioxol-5-ylmethyl)-amino]-2-pyrrolidin-1-yl-pyridin-3-yl}-3,3-dimethyl-butyramide], for which the activity at 0.03 µM stood at 155%. As for `N#Cc1ccc(CNc2ccc(NC(=O)Cc3cc(F)cc(F)c3)c(N3CCCC3)n2)cc1` [Compound 17, N-[6-(4-Cyano-benzylamino)-2-pyrrolidin-1-yl-pyridin-3-yl]-2-(3,5-difluoro-phenyl)-acetamide], the activity at 0.03 µM was found to be 490%. The result for `COc1ccc(CNc2ccc(NC(=O)Cc3cc(F)cc(F)c3)c(N3CCCC3)n2)cc1` [Compound 19] reads 842%.
